{"source": "patent US20100227921A1", "about": "“AMINO ACID AND PEPTIDE CARBAMATE PRODRUGS OF […] USES THEREOF” (SHIRE LLC, priority 2009, published 2010)", "key": {"[1]": {"assay": "Comparative bioavailability after oral or intravenous administration to monkeys (plasma LC-MS-MS)", "type": "in vivo, cynomolgus monkey", "conditions": "monkey, below the quantitative limit", "procedure": "Test substances i.e., tapentadol and tapentadol valine carbamate were administered (either intravenously or orally) to a group of five male cynomolgus monkeys in a three way crossover design. The oral doses were given at 1 mg tapentadol base equivalents/kg while the intravenous dose was 0.5 mg/kg\nBlood samples were taken at various times after administration and submitted to analysis for the parent drug and tapentadol valine carbamate using a validated LC-MS-MS assay. Pharmacokinetic parameters derived from the plasma analytical data were determined using Win Nonlin."}, "[2]": {"assay": "Comparative bioavailability after oral administration to rats (plasma LC-MS-MS)", "type": "in vivo", "procedure": "Test substances, i.e., tapentadol or tapentadol valine carbamate were administered by oral gavage to groups of male Sprague Dawley rats.\nBlood samples were taken at various times after administration and submitted to analysis for the parent drug and pro-drug using a validated LC-MS-MS assay. Pharmacokinetic parameters derived from the plasma analytical data were determined using Win Nonlin."}, "[3]": {"conditions": "male rat, oral tapentadol 10 mg free base equiv/kg, individual animals 1-5 (5 outlier)"}}, "note": "Values joined by “and” are separate entries in the source; they are usually repeats but may differ in a detail not shown here. Equal values may be shown once. Marks after values point to notes of the source that are not given here."}
{"smiles": "CC[C@@H](c1cccc(O)c1)[C@@H](C)CN(C)C", "note": "(racemic) [Tapentadol, (−)-(1R,2R)-3-(3-dimethyl-amino-1-ethyl-2-methyl-propyl)-phenol]", "values": [{"measurement": "Plasma levels of tapentadol", "setting": "[1]; after giving the drug (tapentadol)", "value": "< 0.5", "unit": "ng/mL"}, {"measurement": "Plasma levels of tapentadol", "setting": "[1]; after giving the prodrug (tapentadol valine carbamate)", "value": "< 0.5", "unit": "ng/mL"}, {"measurement": "Plasma concentration of tapentadol", "setting": "[2]; male rat, oral tapentadol 10 mg free base equiv/kg, 0.5 h, individual animals 1-5 (5 outlier)", "value": "003.53 ng/mL and 001.60 ng/mL and 2.33 ng/mL and 003.48 ng/mL and 70.5 ng/mL"}, {"measurement": "Plasma concentration of tapentadol", "setting": "[2]; male rat, oral tapentadol 10 mg free base equiv/kg, 1 h, individual animals 1-5 (5 outlier)", "value": "3.98 ng/mL and 2.32 ng/mL and 5.21 ng/mL and 5.87 ng/mL and 52.6 ng/mL"}, {"measurement": "Plasma concentration of tapentadol", "setting": "[2]; male rat, oral tapentadol 10 mg free base equiv/kg, 2 h, individual animals 1-5 (5 outlier)", "value": "2.70 ng/mL and 2.28 ng/mL and 1.72 ng/mL and 3.06 ng/mL and 22.7 ng/mL"}, {"measurement": "Plasma concentration of tapentadol", "setting": "[2]; male rat, oral tapentadol 10 mg free base equiv/kg, 3 h, individual animals 1-5 (5 outlier)", "value": "1.75 ng/mL and 1.65 ng/mL and 1.68 ng/mL and 2.20 ng/mL and 10.9 ng/mL"}, {"measurement": "Plasma concentration of tapentadol", "setting": "[2]; male rat, oral tapentadol 10 mg free base equiv/kg, 4 h, individual animals 1-5 (5 outlier)", "value": "1.65 ng/mL and 3.61 ng/mL and 1.67 ng/mL and 2.62 ng/mL and 9.10 ng/mL"}, {"measurement": "Plasma concentration of tapentadol", "setting": "[2]; male rat, oral tapentadol 10 mg free base equiv/kg, 6 h, individual animals 1-5 (5 outlier)", "value": "1.38 ng/mL and 1.19 ng/mL and 1.25 ng/mL and 2.00 ng/mL and 5.77 ng/mL"}, {"measurement": "Plasma concentration of tapentadol", "setting": "[2]; male rat, oral tapentadol 10 mg free base equiv/kg, 8 h, individual animals 1-5 (5 outlier)", "value": "0.991 ng/mL and 1.08 ng/mL and 0.684 ng/mL and 1.27 ng/mL and 5.15 ng/mL"}, {"measurement": "Plasma concentration of tapentadol", "setting": "[2]; male rat, oral tapentadol 10 mg free base equiv/kg, 12 h, individual animals 1-5 (5 outlier)", "value": "BLQ (BLQ Values less than level of quantification (LOQ, <0.5 ng/mL))"}, {"measurement": "Plasma concentration of tapentadol", "setting": "[2]; male rat, oral tapentadol 10 mg free base equiv/kg, 24 h, individual animals 1-5", "value": "BLQ (BLQ Values less than level of quantification (LOQ, <0.5 ng/mL))"}, {"measurement": "AUCt of tapentadol", "setting": "[2]; [3]", "value": "0.0154 µg·h/mL and 0.0153 µg·h/mL and 0.0142 µg·h/mL and 0.0206 µg·h/mL and 0.151 µg·h/mL"}, {"measurement": "Cmax of tapentadol", "setting": "[2]; [3]", "value": "3.98 ng/mL and 3.61 ng/mL and 5.21 ng/mL and 5.87 ng/mL and 70.5 ng/mL"}, {"measurement": "T>50%Cmax of tapentadol", "setting": "[2]; [3]", "value": "1.5 h (2×) and 1.0 h and 0.5 h"}, {"measurement": "Tmax of tapentadol", "setting": "[2]; [3]", "value": 4, "unit": "h"}, {"measurement": "t½ of tapentadol", "setting": "[2]; male rat, oral tapentadol 10 mg free base equiv/kg, individual animals 1-5 (5 outlier; animals 1 and 4 estimates)", "value": "6.13^c h and 2.30 h and 3.11 h and 3.83^c h and 2.59 h"}, {"measurement": "AUC of tapentadol", "setting": "[2]; male rat, oral tapentadol 10 mg free base equiv/kg, individual animals 1-5 (5 outlier; animals 1 and 4 estimates, extrapolated portion >25%)", "value": "24.6^c ng · h/mL and 18.4 ng · h/mL and 17.4 ng · h/mL and 27.8^c ng · h/mL and 156 ng · h/mL"}, {"measurement": "T>50%Cmax of tapentadol", "setting": "[2]; male rat, oral tapentadol 10 mg free base equiv/kg, median, animal 5 excluded", "value": "1.5^a h"}, {"measurement": "Plasma concentration of tapentadol", "setting": "[2]; male rat, oral tapentadol valine carbamate 10 mg tapentadol free base equiv/kg, 0.5 h, individual animals 6-10", "value": "BLQ (BLQ Values less than LOQ (<0.5 ng/mL))"}, {"measurement": "Plasma concentration of tapentadol", "setting": "[2]; male rat, oral tapentadol valine carbamate 10 mg tapentadol free base equiv/kg, 1 h, individual animals 6-10", "value": "BLQ (BLQ Values less than LOQ (<0.5 ng/mL))"}, {"measurement": "Plasma concentration of tapentadol", "setting": "[2]; male rat, oral tapentadol valine carbamate 10 mg tapentadol free base equiv/kg, 2 h, individual animals 6-10", "value": "BLQ (BLQ Values less than LOQ (<0.5 ng/mL))"}, {"measurement": "Plasma concentration of tapentadol", "setting": "[2]; male rat, oral tapentadol valine carbamate 10 mg tapentadol free base equiv/kg, 3 h, individual animals 6-10", "value": "BLQ (BLQ Values less than LOQ (<0.5 ng/mL))"}, {"measurement": "Plasma concentration of tapentadol", "setting": "[2]; male rat, oral tapentadol valine carbamate 10 mg tapentadol free base equiv/kg, 4 h, individual animals 6-10", "value": "BLQ (BLQ Values less than LOQ (<0.5 ng/mL))"}, {"measurement": "Plasma concentration of tapentadol", "setting": "[2]; male rat, oral tapentadol valine carbamate 10 mg tapentadol free base equiv/kg, 12 h, individual animals 6-10", "value": "BLQ (BLQ Values less than LOQ (<0.5 ng/mL))"}, {"measurement": "Plasma concentration of tapentadol", "setting": "[2]; male rat, oral tapentadol valine carbamate 10 mg tapentadol free base equiv/kg, 24 h, individual animals 6-10", "value": "BLQ (BLQ Values less than LOQ (<0.5 ng/mL))"}, {"measurement": "T>50%Cmax of tapentadol", "setting": "[2]; male rat, oral tapentadol valine carbamate 10 mg tapentadol free base equiv/kg, individual animals 6-10", "value": 2, "unit": "h"}, {"measurement": "T>50%Cmax of tapentadol", "setting": "[2]; male rat, oral tapentadol valine carbamate 10 mg tapentadol free base equiv/kg, median", "value": "2^a h"}, {"measurement": "concentration at 0.5 h", "setting": "[2]; male, Sprague Dawley, rat, plasma, po, 10 mg free base equiv/kg, oral tapentadol 10 mg free base equiv/kg, 0.5 h, mean, animal 5 excluded, read-out: Plasma concentration of tapentadol", "value": 2.73, "unit": "ng/mL"}, {"measurement": "concentration at 1 h", "setting": "[2]; male, Sprague Dawley, rat, plasma, po, 10 mg free base equiv/kg, oral tapentadol 10 mg free base equiv/kg, 1 h, mean, animal 5 excluded, read-out: Plasma concentration of tapentadol", "value": 4.34, "unit": "ng/mL"}, {"measurement": "concentration at 2 h", "setting": "[2]; male, Sprague Dawley, rat, plasma, po, 10 mg free base equiv/kg, oral tapentadol 10 mg free base equiv/kg, 2 h, mean, animal 5 excluded, read-out: Plasma concentration of tapentadol", "value": 2.44, "unit": "ng/mL"}, {"measurement": "concentration at 3 h", "setting": "[2]; male, Sprague Dawley, rat, plasma, po, 10 mg free base equiv/kg, oral tapentadol 10 mg free base equiv/kg, 3 h, mean, animal 5 excluded, read-out: Plasma concentration of tapentadol", "value": 1.82, "unit": "ng/mL"}, {"measurement": "concentration at 4 h", "setting": "[2]; male, Sprague Dawley, rat, plasma, po, 10 mg free base equiv/kg, oral tapentadol 10 mg free base equiv/kg, 4 h, mean, animal 5 excluded, read-out: Plasma concentration of tapentadol", "value": 2.39, "unit": "ng/mL"}, {"measurement": "concentration at 6 h", "setting": "[2]; male, Sprague Dawley, rat, plasma, po, 10 mg free base equiv/kg, oral tapentadol 10 mg free base equiv/kg, 6 h, mean, animal 5 excluded, read-out: Plasma concentration of tapentadol", "value": 1.45, "unit": "ng/mL"}, {"measurement": "concentration at 8 h", "setting": "[2]; male, Sprague Dawley, rat, plasma, po, 10 mg free base equiv/kg, oral tapentadol 10 mg free base equiv/kg, 8 h, mean, animal 5 excluded, read-out: Plasma concentration of tapentadol", "value": 1.01, "unit": "ng/mL"}, {"measurement": "concentration at 12 h", "setting": "[2]; male, Sprague Dawley, rat, plasma, po, 10 mg free base equiv/kg, oral tapentadol 10 mg free base equiv/kg, 12 h, individual animals 1-5 (5 outlier), read-out: Plasma concentration of tapentadol", "value": 1.09, "unit": "ng/mL"}, {"measurement": "AUC", "setting": "[2]; male, Sprague Dawley, rat, plasma, po, 10 mg free base equiv/kg, oral tapentadol 10 mg free base equiv/kg, mean, animal 5 and estimates excluded", "value": 0.0179, "unit": "µg·h/mL"}]}
